What all share (experiment): growth of human tumour cells (NCI), 48 h
Assay [1] deals with COLO 205 colon.
Assay [2] relates to NCI/ADR-RES ovarian.
Assay [3] deals with U251 CNS.
For assay [4], the system named is UO-31 renal.
The test system of assay [5] is LOX IMVI melanoma.
The test system of assay [6] is UACC-62 melanoma.
The test system of assay [7] is HCT-116 colon.
For assay [8], the system named is 786-0 renal.
For assay [9], the system named is OVCAR-8 ovarian.
Assay [10] deals with SK-MEL-28 melanoma.

Structures are written as SMILES.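 Results reflect a 48-hour exposure of cells in 96-well plates to compound at five concentrations. Abbreviation: GI50, concentration required for 50% inhibition of growth. Definition used: TGI = concentration required for complete inhibition of growth.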

For the compound `Cc1nc2sc(C(=O)Nc3cccc(Br)c3)c(N)c2cc1C(O)c1ccccc1` (stereo not given), the GI50 in assay [1] was 3.61 µM; in assay [2] it was 0.619 µM; in [3], 0.52 µM; in assay [4] it was 1.82 µM; in [5] it was 0.731 µM; in assay [6] it was 0.622 µM. In addition, the GI50 is 0.438 µM in [7], 1.6 µM in assay [8], 1.42 µM in assay [9] and 4.61 µM in [10]. Further, the TGI is 20.2 µM in assay [1]; 8.47 µM in assay [2]; over 70.9 µM in [3]; 16.5 µM in [4]; 22.9 µM in assay [5]; 16.4 µM in [6]. For the same compound, the TGI in [7] worked out at 16.2 µM; in assay [8], 18.4 µM; in assay [9] it was 55.1 µM; in [10] it was 23.7 µM.
Consider `Nc1nc(-c2cccs2)cs1`, for which the TGI in [1], in assay [2], in assay [3], in assay [4], in assay [5] and in assay [6] was over 100 µM each time. Besides, the TGI in [7], in assay [8], in assay [9] and in assay [10] was over 100 µM throughout.
As for `CCOC(=O)N1C=CC(=C2C(=C3C=CN(C(=O)OCC)C=C3)C(=C3C=CN(C(=O)OCC)C=C3)C2=C2C=CN(C(=O)OCC)C=C2)C=C1`, the TGI in assay [1] is over 100 µM; in [2], over 100 µM; in assay [3] it was 91.7 µM; in [4], 38.5 µM; in assay [5], 45.8 µM; in assay [6], 45 µM. Moreover, the TGI in assay [7] was 56.1 µM; in [8], over 100 µM; in assay [9], 71.5 µM; in [10], over 100 µM.
As to `Clc1ccc2c(NCCNc3nc(N4CCCC4)nc4ccccc34)ccnc2c1`, the GI50 in assay [1] is 0.147 µM; in assay [2] it was 2.78 µM; in [3] it was 1.49 µM; in assay [4], 1.26 µM; in assay [5], 0.863 µM; in assay [6], 1.8 µM. Besides, the GI50 was 0.309 µM in assay [7], 1.17 µM in assay [8], 1.65 µM in assay [9] and 1.84 µM in assay [10]. The TGI in assay [1] turned out to be 1.94 µM; in assay [2], 11.1 µM; in assay [3], 3.15 µM; in assay [4], 2.51 µM; in assay [5], 2.34 µM; in [6] it was 3.5 µM. Besides, the TGI was found to be 1.02 µM in assay [7], 3.18 µM in assay [8], 4.12 µM in assay [9] and 3.55 µM in [10].
With `COc1ccc2c(c1)C(=O)c1c-2c(NCCN(C)C)nc2ccccc12`, the GI50 in assay [1] is 4.51 µM; in [2] it was 3.66 µM; in [3], 2.47 µM; in [4], 9.98 µM; in assay [5] it was 2.01 µM; in assay [6], 15.8 µM. In addition, the GI50 in [7] is 15.1 µM; in [8], 2.65 µM; in [9] it was 0.496 µM; in assay [10] it was 13.9 µM. In addition, the TGI came to 19.3 µM in assay [1]; 14.3 µM in assay [2]; 11.7 µM in [3]; 22 µM in assay [4]; 11.6 µM in assay [5]; 29.4 µM in [6]. In addition, the TGI stood at 28.3 µM in assay [7], 9.1 µM in [8], 5.53 µM in assay [9] and 26.9 µM in assay [10].
Turning to `CC[CH2][Sn]([CH2]CC)([O]C(=O)Cc1ccc(F)cc1)[O][Sn]([CH2]CC)([CH2]CC)[O]C(=O)Cc1ccc(F)cc1`, the GI50 in assay [1] was 0.266 µM; in assay [2] it was 0.574 µM; in assay [3] it was 0.131 µM; in assay [4] it was 0.482 µM; in assay [5] it was 0.0851 µM; in [6], 0.172 µM. The GI50 was 0.218 µM in [7], 0.133 µM in [8], 0.278 µM in assay [9] and 0.157 µM in assay [10]. The TGI in assay [1] is 0.857 µM; in [2], 1.93 µM; in assay [3], 0.431 µM; in assay [4], 1.65 µM; in assay [5] it was 0.232 µM; in assay [6], 0.524 µM. Also, the TGI was determined as 0.796 µM in assay [7], 0.361 µM in [8], 1.41 µM in [9] and 0.446 µM in assay [10].
For `Cn1sc2ccccc2c1=S`, the TGI turned out to be 26.2 µM in assay [1]; 9.38 µM in assay [2]; 13.5 µM in assay [3]; 28.7 µM in assay [4]; 4.5 µM in assay [5]; 18.1 µM in [6]. For the same compound, the TGI was found to be 13.3 µM in assay [7], 13.6 µM in assay [8], 22.3 µM in assay [9] and 22 µM in assay [10].
Turning to `N#CSc1ccc(S(N)(=O)=O)cc1`, the TGI in assay [1] was over 100 µM; in assay [2], over 100 µM; in assay [3], 38.1 µM; in assay [4], 35.2 µM; in assay [5] it was over 100 µM; in [6] it was over 100 µM. In addition, the TGI in assay [7] was over 100 µM; in [8] it was 65.2 µM; in [9], over 100 µM; in [10], over 100 µM.
Consider `COc1cc(C)c(NC(=O)CN(C)C)cc1Nc1nc(Nc2cccc(F)c2C(N)=O)c2cc[nH]c2n1`, for which the GI50 is 0.014 µM in assay [1]; 2.64 µM in [2]; 3.12 µM in assay [3]; 3.33 µM in [4]; 1.45 µM in assay [5]; 1.16 µM in assay [6]. Besides, the GI50 in assay [7] is 0.686 µM; in assay [8], 4.15 µM; in [9], 1.64 µM; in assay [10] it was 2.68 µM. Further, the TGI stood at 0.552 µM in assay [1]; 7.59 µM in [2]; 6.86 µM in assay [3]; 7.08 µM in assay [4]; 6.1 µM in [5]; 7.89 µM in [6]. Moreover, the TGI in assay [7] worked out at 4.31 µM; in [8], 8.76 µM; in assay [9] it was 6.32 µM; in assay [10], 9.62 µM.
Take `O=C(O)c1ccccc1Nc1ccc2nnc(-c3ccncc3)n2n1`: the GI50 in assay [1] was 13 µM; in assay [2], 18.8 µM; in [3] it was 13.3 µM; in assay [4], 3.81 µM; in assay [5], 1.97 µM; in assay [6], 5.18 µM. For the same compound, the GI50 in assay [7] was 4.09 µM; in assay [8] it was 4.64 µM; in assay [9], 8.1 µM; in [10] it was 12.7 µM. For the same compound, the TGI in assay [1] was 30.8 µM; in [2], 77.4 µM; in assay [3], 28 µM; in [4], 15.5 µM; in assay [5] it was 4.1 µM; in assay [6], 19.5 µM. Also, the TGI in assay [7] is 21 µM; in [8] it was 19.7 µM; in [9], 41.7 µM; in assay [10], 29.6 µM.
Turning to `COc1ccc(C(c2cc3c(cc2O)OCO3)N2CCOCC2)cc1OC` (stereo not given), the TGI was 28.8 µM in assay [1]; 20 µM in [2]; 21.4 µM in assay [3]; 25 µM in assay [4]; 16.5 µM in assay [5]; 19.9 µM in [6]. The TGI was determined as 22.9 µM in [7], 23.1 µM in assay [8], 27.2 µM in assay [9] and 32.9 µM in assay [10].

The record behind these values is PubChem BioAssay (NCI).
